pIC50: −log10 of the molar value.
Experiments:
Format in all cases: cell-based
[1] = target: T1, NLRP3 (Homo sapiens, UniProt Q96P20); test: THP-1 cells pyroptosis assay; design: Seed THP-1 cells (25,000 cells/well) containing 10 μg/ml LPS; host or cells: THP-1 cells; details: LPS primed, nigericin 5 μM, resazurin read-out
Description: Therefore, it is anticipated that inhibitors of NLRP3 will block pyroptosis, as well as the release of pro-inflammatory cytokines (e.g. IL-1B) from the cell.
On the day of the experiment, THP-1 cells were harvested and resuspended into RPMI medium (without FBS). The cells were then counted and viability (>90%) checked by Trypan blue (Sigma #T8154). […] To this diluted cell solution was added LPS (Sigma #L4524) to give a 1 μg/ml Final Assay Concentration (FAC). 40 μl of the final preparation was aliquoted into each well of a 96-well plate. The plate thus prepared was used for compound screening.
The following method step-by-step assay was followed for compound screening. • 1. […] Incubate for 3 hours at 37° C., 5% CO2 • 4. Add 5 μl nigericin (Sigma #N7143) (FAC 5 μM) to all wells • 5. Incubate for 1 hr at 37° C., 5% CO2 • 6. At the end of the incubation period, spin plates at 300 xg for 3 mins and remove supernatant • 7. […] IC50 data is fitted to a non-linear regression equation (log inhibitor vs response-variable slope 4-parameters)

[2] = target: T1, NLRP3; test: Human whole blood IL-1β release assay; design: Human whole blood in Li-heparin tubes was obtained from healthy donors; from tissue; host or cells: human whole blood from healthy donors; details: LPS 1 μg/ml, nigericin 10 μM, IL-1β by AlphaLisa
Description: Human whole blood in Li-heparin tubes was obtained from healthy donors from a volunteer donor panel. • 1. […] Incubate for 3 hours at 37° C., 5% CO2 • 4. Add 10 μl nigericin (Sigma #N7143) (10 μM FAC) to all wells • 5. Incubate for 1 hr at 37° C., 5% CO2 • 6. At the end of the incubation period, spin plates at 300 xg for 5 mins to pellet cells and remove 20 μl of supernatant and add to 96-well v-bottom plates for IL-1β analysis (note: these plates containing the supernatants can be stored at −80° C. to be analysed at a later date) • 7. IL-1β was measured according to the manufacturer protocol (Perkin Elmer-AlphaLisa IL-1 Kit AL220F-5000) • 8. IC50 data is fitted to a non-linear regression equation (log inhibitor vs response-variable slope 4-parameters)

[3] = target: T2, hERG cardiac potassium channel (Homo sapiens, UniProt Q12809); test: hERG screening assay (automated patch clamp, CHO crelox hERG cells); details: whole-cell patch clamp at 35-37° C.
T2 construct: host or cells: CHO crelox hERG cell line (Chinese hamster)
T2 sequence (Q12809 whole entry): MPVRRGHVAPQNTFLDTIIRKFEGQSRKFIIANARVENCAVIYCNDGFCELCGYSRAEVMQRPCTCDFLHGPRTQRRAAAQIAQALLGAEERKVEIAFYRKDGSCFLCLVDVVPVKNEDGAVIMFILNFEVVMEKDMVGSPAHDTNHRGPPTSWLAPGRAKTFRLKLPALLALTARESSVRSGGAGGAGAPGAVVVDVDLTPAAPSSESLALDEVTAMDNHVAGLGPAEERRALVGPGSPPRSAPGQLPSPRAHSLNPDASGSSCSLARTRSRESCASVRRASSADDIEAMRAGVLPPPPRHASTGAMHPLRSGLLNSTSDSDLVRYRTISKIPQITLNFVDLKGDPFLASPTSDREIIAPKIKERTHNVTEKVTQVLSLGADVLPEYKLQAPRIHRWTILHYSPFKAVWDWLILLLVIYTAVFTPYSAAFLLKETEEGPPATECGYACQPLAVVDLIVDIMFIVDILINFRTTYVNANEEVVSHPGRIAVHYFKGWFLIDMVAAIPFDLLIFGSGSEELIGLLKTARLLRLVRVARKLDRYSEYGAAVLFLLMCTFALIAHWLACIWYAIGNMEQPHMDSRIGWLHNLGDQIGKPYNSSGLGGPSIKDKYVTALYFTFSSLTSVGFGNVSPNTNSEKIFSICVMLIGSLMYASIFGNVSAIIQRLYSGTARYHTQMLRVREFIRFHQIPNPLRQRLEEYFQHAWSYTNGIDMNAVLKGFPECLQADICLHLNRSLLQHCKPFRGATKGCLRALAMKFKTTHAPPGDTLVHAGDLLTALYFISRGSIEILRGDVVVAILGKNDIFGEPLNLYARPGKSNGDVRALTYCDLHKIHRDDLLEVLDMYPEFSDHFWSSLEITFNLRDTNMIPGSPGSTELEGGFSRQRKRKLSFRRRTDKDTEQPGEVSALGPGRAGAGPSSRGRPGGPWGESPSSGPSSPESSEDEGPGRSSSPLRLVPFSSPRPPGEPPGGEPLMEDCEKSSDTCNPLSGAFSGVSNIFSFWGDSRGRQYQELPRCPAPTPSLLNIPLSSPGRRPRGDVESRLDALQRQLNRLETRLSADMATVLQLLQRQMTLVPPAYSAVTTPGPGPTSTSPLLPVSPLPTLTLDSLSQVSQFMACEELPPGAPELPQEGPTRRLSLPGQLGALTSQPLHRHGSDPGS
Description: Ready-to-use frozen instant CHO-hERG cells were cryopreserved at Evotec (Germany) and used directly in the experiments.
The internal solution contains (in mM): KCl, 10; KF, 100; NaCl, 10; HEPES, 10; EGTA, 20; pH=7.0-7.4 with KOH, osmolarity 260-300 mOsm.
The effects of a compound on hERG K+-currents parameters will be evaluated at 2 concentrations in at least 4 cells.
K+ currents are measured with the patch-voltage-clamp technique in the whole-cell configuration at 35-37° C.
The amplitudes of IKhERG were recorded in each concentration of drug and they were compared to the vehicle control values (taken as 100%) to define fractional blocks. The concentration-response data were fitted with the following relationship:
Concentration-response curves were fitted by non-linear regression analysis using EworkBook suite (ID Business Solutions Ltd, UK). Data fit was done with the 4 Parameter Logistic Model (fit=(A+(B/(1+((x/C)^D)))), where A=0 and B=100).
In the drug development process of small molecules, one of the most frequent adverse side effects, leading to the failure of drugs, is the cardiac arrhythmias. Such failure is often related to the capacity of the drug to inhibit the human ether-à-go-go-related gene (hERG) cardiac potassium channel. Having no or low inhibition of the hERG cardiac potassium channel is therefore considered as beneficial.

T1 sequence (Q96P20 whole entry): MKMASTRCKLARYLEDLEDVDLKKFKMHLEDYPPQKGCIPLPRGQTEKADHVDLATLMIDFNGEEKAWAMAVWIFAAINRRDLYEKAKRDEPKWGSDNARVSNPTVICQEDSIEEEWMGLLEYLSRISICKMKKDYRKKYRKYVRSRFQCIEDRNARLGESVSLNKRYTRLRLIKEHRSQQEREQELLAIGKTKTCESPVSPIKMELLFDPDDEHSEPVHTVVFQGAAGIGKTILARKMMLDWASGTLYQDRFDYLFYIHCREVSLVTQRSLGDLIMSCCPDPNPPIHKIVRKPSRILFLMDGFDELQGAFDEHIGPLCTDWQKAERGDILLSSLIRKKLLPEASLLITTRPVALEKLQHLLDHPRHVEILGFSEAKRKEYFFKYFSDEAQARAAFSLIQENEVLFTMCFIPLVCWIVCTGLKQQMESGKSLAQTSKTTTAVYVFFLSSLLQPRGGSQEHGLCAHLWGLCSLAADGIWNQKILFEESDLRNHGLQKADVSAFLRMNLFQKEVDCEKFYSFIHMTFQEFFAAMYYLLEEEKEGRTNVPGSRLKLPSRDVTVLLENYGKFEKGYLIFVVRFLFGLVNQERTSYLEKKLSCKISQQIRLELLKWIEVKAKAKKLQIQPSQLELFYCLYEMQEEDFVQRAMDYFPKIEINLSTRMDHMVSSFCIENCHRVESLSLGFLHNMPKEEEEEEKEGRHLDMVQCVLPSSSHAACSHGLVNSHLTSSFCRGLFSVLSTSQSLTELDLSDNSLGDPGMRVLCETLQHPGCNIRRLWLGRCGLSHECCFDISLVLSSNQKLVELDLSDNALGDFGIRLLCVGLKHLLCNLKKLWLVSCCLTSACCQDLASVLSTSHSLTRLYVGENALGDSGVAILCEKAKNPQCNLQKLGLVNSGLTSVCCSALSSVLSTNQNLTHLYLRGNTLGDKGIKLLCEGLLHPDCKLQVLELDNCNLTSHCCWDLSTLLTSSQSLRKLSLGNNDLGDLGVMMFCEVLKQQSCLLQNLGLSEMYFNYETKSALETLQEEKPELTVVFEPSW

| Compound | pIC50 [1] | pIC50 [2] | pIC50 [3] |
| --- | --- | --- | --- |
| CCN1CCC2CCN(c3ccc(-c4c(C)cc(C#N)cc4O)nn3)C2C1 (single isomer, unassigned) [Example 6B, 4-[6-[(3aR,7aS)-6-Ethyl-3,3a,4,5,7,7a-hexahydro-2H-pyrrolo[2,3-c]pyridin-1-yl]pyridazin-3-yl]-3-hydroxy-5-methyl-benzonitrile or 4-[6-[(3aS,7aR)-6-ethyl-3,3a,4,5,7,7a-hexahydro-2H-pyrrolo[2,3-c]pyridin-1-yl]pyridazin-3-yl]-3-hydroxy-5-methyl-benzonitrile] | 6.12 | – | – |
| CCN1CCC2CCN(c3ccc(-c4c(C)cc(C#N)cc4O)nn3)C2C1 (single isomer, unassigned) [Example 6A, 4-[6-[(3aS,7aR)-6-Ethyl-3,3a,4,5,7,7a-hexahydro-2H-pyrrolo[2,3-c]pyridin-1-yl]pyridazin-3-yl]-3-hydroxy-5-methyl-benzonitrile or 4-[6-[(3aR,7aS)-6-ethyl-3,3a,4,5,7,7a-hexahydro-2H-pyrrolo[2,3-c]pyridin-1-yl]pyridazin-3-yl]-3-hydroxy-5-methyl-benzonitrile] | 8.41 | 7.83 | – |
| Cc1cc(N[C@H]2C[C@@](C)(O)C2)nnc1-c1ccc(C#N)cc1O [Example 4, 3-Hydroxy-4-[6-[(3-hydroxy-3-methyl-cyclobutyl)amino]-4-methyl-pyridazin-3-yl]benzonitrile] | 6.08 | – | – |
| CCN1CCC[C@@H](Nc2cc(C(F)(F)F)c(-c3ccc(C#N)cc3O)nn2)C1 [Example 3, 4-[6-[[(3R)-1-Ethyl-3-piperidyl]amino]-4-(trifluoromethyl)pyridazin-3-yl]-3-hydroxy-benzonitrile] | 7.14 | 7.29 | – |
| CCN1CCC[C@@H](Nc2cc(C)c(-c3ccc(C#N)cc3O)nn2)C1 [Example 1, 4-[6-[[(3R)-1-Ethyl-3-piperidyl]amino]-4-methyl-pyridazin-3-yl]-3-hydroxy-benzonitrile; formic acid] | 8.51 | 8.49 | < 4.70 |
